Source: ChEMBL document CHEMBL3045118, “Synthesis and biological activities of new Mannich bases of chlorokojic acid derivatives” (Med Chem Res, 2011)
≈ marks a conversion by molar mass, not a printed value. Calls of active or inactive are those of the source. The rule behind the calls is not given here.

How the values were obtained:
[1] = system: Staphylococcus aureus; assay: Antibacterial activity against Staphylococcus aureus ATCC 25923 by microdilution method; assay type: functional
[2] = system: Acinetobacter baumannii; assay: Antibacterial activity against Acinetobacter baumannii RSKK 02026 by microdilution method; assay type: functional
[3] = system: Staphylococcus aureus; assay: Antibacterial activity against oxacillin, gentamicin, aztreonam, trimethoprim-sulfamethoxazole-resistant Staphylococcus aureus by microdilution method; assay type: functional
[4] = system: Candida parapsilosis; assay: Antifungal activity against Candida parapsilosis ATCC 22019 by microdilution method; assay type: functional
[5] = system: Escherichia coli; assay: Antibacterial activity against ESbetaL positive trimethoprim-sulfamethoxazole, cefepime, tazobactam-resistant Escherichia coli isolate by microdilution method; assay type: functional
[6] = system: Pseudomonas aeruginosa; assay: Antibacterial activity against trimethoprim-sulfamethoxazole, tazobactam-resistant Pseudomonas aeruginosa by microdilution method; assay type: functional
[7] = system: Klebsiella pneumoniae; assay: Antibacterial activity against Klebsiella pneumoniae RSKK 574 by microdilution method; assay type: functional
[8] = system: Bacillus subtilis; assay: Antibacterial activity against Bacillus subtilis ATCC 6633 by microdilution method; assay type: functional
[9] = system: Escherichia coli; assay: Antibacterial activity against Escherichia coli ATCC 35218 by microdilution method; assay type: functional
[10] = system: Candida albicans; assay: Antifungal activity against Candida albicans ATCC 10231 by microdilution method; assay type: functional
[11] = system: Bacillus subtilis; assay: Antibacterial activity against ceftriaxon-resistant Bacillus subtilis by microdilution method; assay type: functional
[12] = system: Proteus mirabilis; assay: Antibacterial activity against Proteus mirabilis ATCC 7002 by microdilution method; assay type: functional
[13] = system: Proteus mirabilis; assay: Antibacterial activity against ESbetaL positive rimethoprim-sulfamethoxazole, cefepime, tazobactam-resistant Proteus mirabilis by microdilution method; assay type: functional
[14] = system: Pseudomonas aeruginosa; assay: Antibacterial activity against Pseudomonas aeruginosa ATCC 10145 by microdilution method; assay type: functional
[15] = system: Enterococcus faecalis; assay: Antibacterial activity against cephalosporins and beta-lactam-resistant Enterococcus faecalis by microdilution method; assay type: functional
[16] = system: Enterococcus faecalis; assay: Antibacterial activity against Enterococcus faecalis ATCC 29212 by microdilution method; assay type: functional
[17] = system: Acinetobacter baumannii; assay: Antibacterial activity against trimethoprim-sulfamethoxazole, cefepime-resistant Acinetobacter baumannii by microdilution method; assay type: functional
[18] = system: Klebsiella pneumoniae; assay: Antibacterial activity against ESbetaL positive trimethoprim-sulfamethoxazole, amoxicillin clavulonat, cefriaxon, cephepim, aztreonam-resistant Klebsiella pneumoniae by microdilution method; assay type: functional
[19] = system: Human alphaherpesvirus 1; assay: Antiviral activity against Human herpesvirus 1 infected bovine MDBK cells assessed as concentration required to cause maximum inhibition of virus-induced cytopathic effect; assay type: functional
[20] = Cytotoxicity against Bos taurus (bovine) MDBK cells assessed as maximum non-toxic concentration; assay type: cell-based; conditions: cattle, read-out: MNCC
[21] = system: Human respirovirus 3; assay: Antiviral activity against Human parainfluenza virus 3 infected African green monkey Vero cells assessed as concentration required to cause maximum inhibition of virus-induced cytopathic effect; assay type: functional
[22] = Cytotoxicity against Chlorocebus aethiops (African green monkey) Vero cells assessed as maximum non-toxic concentration; assay type: cell-based; conditions: chlorocebus sabaeus, read-out: MNCC
[23] = system: Human alphaherpesvirus 1; assay: Antiviral activity against Human herpesvirus 1 infected bovine MDBK cells assessed as concentration required to cause minimum inhibition of virus-induced cytopathic effect; assay type: functional
[24] = system: Human respirovirus 3; assay: Antiviral activity against Human parainfluenza virus 3 infected African green monkey Vero cells assessed as concentration required to cause minimum inhibition of virus-induced cytopathic effect; assay type: functional

Molecule	MIC [1]	MIC [2]	MIC [3]	MIC [4]	MIC [5]	MIC [6]	MIC [7]	MIC [8]	MIC [9]	MIC [10]	MIC [11]	MIC [12]	MIC [13]	MIC [14]	MIC [15]	MIC [16]	MIC [17]	MIC [18]	Activity [19] [µg/mL]	MIC ([4]; Lodderomyces parapsilosis) [µg/mL]	other results
GENTAMICIN	inactive	inactive	inactive	inactive	inactive	inactive	inactive	inactive	inactive	inactive	inactive	inactive	inactive	inactive	inactive	inactive	inactive	inactive	–	–	–
O=c1cc(CCl)oc(CN2CCN(c3cccc(C(F)(F)F)c3)CC2)c1O	32 µg/mL (≈ 79.4 µM)	32 µg/mL (≈ 79.4 µM)	64 µg/mL (≈ 159 µM)	–	64 µg/mL	64 µg/mL	16 µg/mL (≈ 39.7 µM)	32 µg/mL (≈ 79.4 µM)	16 µg/mL (≈ 39.7 µM)	8 µg/mL (≈ 19.9 µM)	64 µg/mL (≈ 159 µM)	16 µg/mL (≈ 39.7 µM)	64 µg/mL	16 µg/mL (≈ 39.7 µM)	32 µg/mL (≈ 79.4 µM)	16 µg/mL (≈ 39.7 µM)	64 µg/mL (≈ 159 µM)	64 µg/mL (≈ 159 µM)	0.8	8 (≈ 19.9 µM)	MNTC [20]: 0.8 µg/mL; Activity [21]: 0.4 µg/mL; MNTC [22]: 0.8 µg/mL; Activity [23]: 0.05 µg/mL; Activity [24]: 0.025 µg/mL
C[C@H]1COc2c(N3CCN(C)CC3)c(F)cc3c(=O)c(C(=O)O)cn1c23.C[C@H]1COc2c(N3CCN(C)CC3)c(F)cc3c(=O)c(C(=O)O)cn1c23.O [LEVOFLOXACIN]	0.25 µg/mL	0.12 µg/mL	128 µg/mL	inactive	–	–	< 0.12 µg/mL	inactive	–	inactive	inactive	< 0.12 µg/mL	1 µg/mL	–	32 µg/mL	0.5 µg/mL	64 µg/mL	–	–	–	–
Nc1nc2c(ncn2COCCO)c(=O)[nH]1 [ACYCLOVIR]	–	–	–	–	–	–	–	–	–	–	–	–	–	–	–	–	–	–	1.6	–	Activity [23]: <0.012 µg/mL
COc1cccc(N2CCN(Cc3oc(CCl)cc(=O)c3O)CC2)c1	64 µg/mL (≈ 175 µM)	32 µg/mL (≈ 87.7 µM)	128 µg/mL (≈ 351 µM)	–	64 µg/mL	64 µg/mL	32 µg/mL (≈ 87.7 µM)	16 µg/mL (≈ 43.9 µM)	32 µg/mL (≈ 87.7 µM)	8 µg/mL (≈ 21.9 µM)	32 µg/mL (≈ 87.7 µM)	32 µg/mL (≈ 87.7 µM)	64 µg/mL	32 µg/mL (≈ 87.7 µM)	128 µg/mL (≈ 351 µM)	64 µg/mL (≈ 175 µM)	64 µg/mL (≈ 175 µM)	64 µg/mL (≈ 175 µM)	0.8	8 (≈ 21.9 µM)	MNTC [20]: 0.8 µg/mL; Activity [21]: 0.4 µg/mL; MNTC [22]: 1.6 µg/mL; Activity [23]: 0.2 µg/mL; Activity [24]: 0.1 µg/mL
O=c1cc(CCl)oc(CN2CCN(c3ccc(F)cc3)CC2)c1O	16 µg/mL (≈ 45.4 µM)	32 µg/mL (≈ 90.7 µM)	64 µg/mL (≈ 181 µM)	–	64 µg/mL	64 µg/mL	16 µg/mL (≈ 45.4 µM)	16 µg/mL (≈ 45.4 µM)	16 µg/mL (≈ 45.4 µM)	8 µg/mL (≈ 22.7 µM)	32 µg/mL (≈ 90.7 µM)	16 µg/mL (≈ 45.4 µM)	64 µg/mL	32 µg/mL (≈ 90.7 µM)	32 µg/mL (≈ 90.7 µM)	16 µg/mL (≈ 45.4 µM)	64 µg/mL (≈ 181 µM)	64 µg/mL (≈ 181 µM)	0.8	8 (≈ 22.7 µM)	MNTC [20]: 0.8 µg/mL; Activity [21]: 0.2 µg/mL; MNTC [22]: 1.6 µg/mL; Activity [23]: 0.05 µg/mL; Activity [24]: 0.025 µg/mL
CCOC(=O)C1=C[C@@H](OC(CC)CC)[C@H](NC(C)=O)[C@@H](N)C1 [OSELTAMIVIR]	–	–	–	–	–	–	–	–	–	–	–	–	–	–	–	–	–	–	–	–	Activity [21]: 1.6 µg/mL; Activity [24]: <0.012 µg/mL
COc1ccccc1N1CCN(Cc2oc(CCl)cc(=O)c2O)CC1	64 µg/mL (≈ 175 µM)	32 µg/mL (≈ 87.7 µM)	128 µg/mL (≈ 351 µM)	–	64 µg/mL	64 µg/mL	32 µg/mL (≈ 87.7 µM)	16 µg/mL (≈ 43.9 µM)	32 µg/mL (≈ 87.7 µM)	8 µg/mL (≈ 21.9 µM)	32 µg/mL (≈ 87.7 µM)	32 µg/mL (≈ 87.7 µM)	64 µg/mL	32 µg/mL (≈ 87.7 µM)	128 µg/mL (≈ 351 µM)	64 µg/mL (≈ 175 µM)	64 µg/mL (≈ 175 µM)	64 µg/mL (≈ 175 µM)	0.8	8 (≈ 21.9 µM)	MNTC [20]: 0.8 µg/mL; Activity [21]: 0.2 µg/mL; MNTC [22]: 1.6 µg/mL; Activity [23]: 0.2 µg/mL; Activity [24]: 0.05 µg/mL
CC1COc2c(N3CCN(C)CC3)c(F)cc3c(=O)c(C(=O)O)cn1c23 (centres undefined) [OFLOXACIN]	0.25 µg/mL (≈ 0.692 µM)	0.12 µg/mL (≈ 0.332 µM)	64 µg/mL (≈ 177 µM)	inactive	–	–	< 0.12 µg/mL	inactive	–	inactive	inactive	< 0.12 µg/mL	1 µg/mL	–	32 µg/mL (≈ 88.6 µM)	1 µg/mL (≈ 2.77 µM)	64 µg/mL (≈ 177 µM)	–	–	–	–
OC(Cn1cncn1)(Cn1cncn1)c1ccc(F)cc1F [FLUCONAZOLE]	inactive	–	inactive	–	–	–	–	inactive	–	2 µg/mL (≈ 6.53 µM)	inactive	–	–	–	inactive	inactive	–	–	–	4 (≈ 13.1 µM)	–
CC1(C)S[C@@H]2[C@H](NC(=O)[C@H](N)c3ccccc3)C(=O)N2[C@H]1C(=O)O [AMPICILLIN]	< 0.12 µg/mL	2 µg/mL (≈ 5.72 µM)	> 128 µg/mL	inactive	> 128 µg/mL	inactive	2 µg/mL (≈ 5.72 µM)	0.12 µg/mL (≈ 0.343 µM)	–	inactive	0.5 µg/mL (≈ 1.43 µM)	2 µg/mL (≈ 5.72 µM)	> 128 µg/mL	inactive	> 128 µg/mL	0.5 µg/mL (≈ 1.43 µM)	> 128 µg/mL	> 128 µg/mL	–	–	–
CN[C@H](CC(C)C)C(=O)N[C@H]1C(=O)N[C@@H](CC(N)=O)C(=O)N[C@H]2C(=O)N[C@H]3C(=O)N[C@H](C(=O)N[C@H](C(=O)O)c4cc(O)cc(O)c4-c4cc3ccc4O)[C@H](O)c3ccc(c(Cl)c3)Oc3cc2cc(c3O[C@@H]2O[C@H](CO)[C@@H](O)[C@H](O)[C@H]2O[C@H]2C[C@](C)(N)[C@H](O)[C@H](C)O2)Oc2ccc(cc2Cl)[C@H]1O [VANCOMYCIN]	0.12 µg/mL (≈ 0.0828 µM)	inactive	–	inactive	inactive	inactive	inactive	inactive	inactive	inactive	inactive	inactive	inactive	inactive	inactive	inactive	inactive	inactive	–	–	–
CC(=O)N1CCN(c2ccc(OCC3COC(Cn4ccnc4)(c4ccc(Cl)cc4Cl)O3)cc2)CC1 (centres undefined) [KETOCONAZOLE]	inactive	–	inactive	–	–	–	–	inactive	–	1 µg/mL (≈ 1.88 µM)	inactive	–	–	–	inactive	inactive	–	–	–	1 (≈ 1.88 µM)	–
